From patent publication US6380263B1, “6-substituted pyrimidine 3-oxides for promoting pigmentation of the skin/hair” (Societe L'Oreal, priority 1996, dated 2002)

System: purified fungal tyrosinase (EC 1.14.18.1)
Assay: Modulation of tyrosinase activity (dopachrome formation from L-tyrosine, spectrophotometry at 475 nm)
Type: biochemical
Details: 100 μl of 1 mM derivative solution (PBS/1% ethanol) in 1000 μl mixture; substrate L-tyrosine; 37° C.; at least 30 minutes
Experimental: In order to determine the activity of the pyrimidine derivatives substituted in position 6, the simple and rapid technique is employed that entails measurement by incubating an optionally purified tyrosinase and one of its substrates in a suitable medium in the presence of a test compound, and then comparing the measurements taken with the results of identical measurements taken during the incubation of optionally purified tyrosinase with one of its substrates in the absence of the test compound.
A purified tyrosinase was incubated in the presence of one of its substrates in a suitable medium, in the presence or absence of a pyrimidine 3-oxide derivative, substituted in position 6. The activity of the enzyme was evaluated by measuring the amount of a product of conversion of the substrate formed during the reaction. The result obtained in the presence of a derivative was compared with the result obtained in the absence of a derivative.
The substrate used was L-tyrosine (marketed by Sigma), a stock solution of which was prepared in phosphate-buffered saline (PBS) at a concentration of 0.5 mM.
The enzyme used was a purified fungal tyrosinase (EC 1.14.18.1) marketed by Sigma. A stock solution of this enzyme was prepared in PBS at a concentration of 5 mg/ml, which represents a concentration of about 19,500 international units of tyrosinase per milliliter.
The product of conversion of the tyrosine by tyrosinase, dopachrome, was measured by spectrophotometry at a wavelength of 475 nm using a Perkin Elmer type apparatus.
The derivative to be tested was prepared in solution in PBS containing 1% ethanol at a concentration of 1 mM.
The following reagents were mixed together in a spectrophotometer cell:
500 μl of tyrosine solution,
390 μl of phosphate buffer,
10 μl of fungal tyrosinase solution,
100 μl of solution of test derivative or of PBS/1% ethanol (control).
The mixture was then incubated at a temperature of 37° C. and the dopachrome formed was measured continuously for at least 30 minutes.
The results obtained are expressed as a % of activation of the tyrosinase activity relative to the value obtained with the control (in the absence of derivative).

Structure (SMILES)	Activation (% of activation of the tyrosinase activity relative to the control) [%]
CCCNc1cc(N2CCCCC2)nc(N)[n+]1[O-] [2-amino-4-propylamino-6-piperidinopyrimidine 3-oxide]	46
CCNc1cc(N(C)C)nc(NCC)[n+]1[O-] [2,4-bis-ethylamino-6-dimethylaminopyrimidine 3-oxide]	60
CCCCCCNc1cc(N2CCCCC2)nc(N)[n+]1[O-] [2-amino-4-hexylamino-6-piperidinopyrimidine 3-oxide]	47
CC(C)Nc1cc(N(C)C)nc(N)[n+]1[O-] [2-amino-4-isopropylamino-6-dimethylaminopyrimidine 3-oxide]	46
CCCNc1cc(N(C)C)nc(N)[n+]1[O-] [2-amino-4-propylamino-6-dimethylaminopyrimidine 3-oxide]	50
CCCNc1cc(N(C)C)nc(NCCC)[n+]1[O-] [2,4-bis-propylamino-6-dimethylaminopyrimidine 3-oxide]	55
CCCCNc1cc(N(C)C)nc(N)[n+]1[O-] [2-amino-4-butylamino-6-dimethylaminopyrimidine 3-oxide]	51
Nc1cc(N2CCCCC2)nc(N)[n+]1[O-] [Minoxidil, 2,4-diamino-6-piperidinopyrimidine 3-oxide, reference compound]	41
Nc1nc(N2CCCCC2)cc(NCc2ccccc2)[n+]1[O-] [2-amino-4-benzylamino-6-piperidinopyrimidine 3-oxide]	45
CNc1cc(N(C)C)nc(NC)[n+]1[O-] [2,4-bis-methylamino-6-dimethylaminopyrimidine 3-oxide]	61
CNc1cc(N2CCCCC2)nc(N)[n+]1[O-] [2-amino-4-methylamino-6-piperidinopyrimidine 3-oxide]	50
CCCNc1cc(N2CCCCC2)nc(NCCC)[n+]1[O-] [2,4-bis-propylamino-6-piperidinopyrimidine 3-oxide]	57
Nc1nc(N2CCCCC2)cc(NCCO)[n+]1[O-] [2-amino-4-(2-hydroxyethylamino)-6-piperidinopyrimidine 3-oxide]	43

System: hair pigmentation
Assay: not given
Details: bald men treated with this compound; cited from earlier work

Structure (SMILES)	effect on hair pigmentation
Nc1cc(N2CCCCC2)nc(N)[n+]1[O-] [Minoxidil, 2,4-diamino-6-piperidinopyrimidine 3-oxide, reference compound]	stimulatory effect on hair pigmentation
